From patent publication US20130260391A1, “Method Of Determining The Protease Cathepsin B In A Biological Sample” (priority 2010, published 2013)

Target: T1, cathepsin B (Homo sapiens, UniProt P07858)
T1 construct: Conversion of procathepsin B in the sample into the active form of cathepsin B; from tissue; host or cells: serum sample
Experiment: enzyme assay of cathepsin B activity in deinhibited serum sample with substrate Z-Arg-Arg-AFC (fluorescence)
Type: biochemical
Settings: inhibitor added to the enzyme assay after withdrawing the protease inhibitor; compared with the signal before withdrawing the inhibitor
Experimental: 6) Measuring the activity of cathepsin B in the sample
To 110 μl of the serum samples, which have been treated as described, in 0.5 ml reaction vessels 110 μl of a solution of the substrate (70 μM Z-Arg-Arg-AFC) are added, the pH-value of which is set at pH=6 by phosphate buffer and which contains 5 mM EDTA and 10 mM DTE. After mixing the samples are incubated for 120 min at 37° C. Subsequently the reaction vessels are cooled down with ice, centrifuged for a short time so as to bring the water condensed at the cap of the reaction vessel back to the solution and then the fluorescence emission is recorded, either on a microtiter plate by means of a fluorescence reader or in a cuvette by means of a fluorimeter. The excitation wavelength is at about 400 nm, and a suitable detection wavelength is at about 505 nm.
Thus evidence is established that the value measured in the enzyme assay after withdrawing the inhibitor relates to cathepsin B which is set free.

Compound | measurement signal of the enzyme assay after addition of the inhibitor
CCCNC(=O)[C@H]1O[C@@H]1C(=O)N[C@H](C(=O)N1CCC[C@H]1C(=O)O)[C@@H](C)CC [CA-074] | the same as the measuring signal, which is obtained, when the enzyme assay is carried out before withdrawing the inhibitor
CC(C)C[C@H](NC(=O)[C@H]1O[C@@H]1C(=O)O)C(=O)NCCCCN=C(N)N [E 64] | the same as the measuring signal, which is obtained, when the enzyme assay is carried out before withdrawing the inhibitor
